T/C data for 23 compounds are collected here from PubChem BioAssay AID330 (DTP/NCI, 2004).

Several values for one entry are separate records, joined by “and”; a condition that tells them apart may be missing. Equal entries are not always repeated. Inconclusive results and toxic doses are left out.

This assay has as its system P388 leukemia ip, CD2F1 mice, survival T/C. Description: NCI In Vivo Anticancer Drug Screen. Data for tumor model P388 Leukemia (intraperitoneal) in CD2F1 (CDF1) mice. The note with it: endpoint: median survival time, higher = longer survival. The essentials: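 Mice carrying the transplanted tumor received test compound or vehicle. Survival was recorded in each group, and the value is the treated-group measurement divided by that of the vehicle-treated control group.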

Where [1] appears, read: dose: 50.0 mg/kg/injection, schedule: Q01DX005 (ip), vehicle: Klucel (hydroxypropylcellulose) (HPC).
Setting [2] is: dose: 100.0 mg/kg/injection, schedule: Q01DX005 (ip), vehicle: Klucel (hydroxypropylcellulose) (HPC).
The mark [3] stands for this setting: dose: 200.0 mg/kg/injection, schedule: Q01DX005 (ip), vehicle: Klucel (hydroxypropylcellulose) (HPC).
[4] abbreviates: dose: 60.0 mg/kg/injection, schedule: Q01DX005 (ip), vehicle: saline with Tween-80.
The mark [5] stands for this setting: dose: 120.0 mg/kg/injection, schedule: Q01DX005 (ip), vehicle: saline with Tween-80.
The mark [6] stands for this setting: dose: 240.0 mg/kg/injection, schedule: Q01DX005 (ip), vehicle: saline with Tween-80.
Setting [7] is: dose: 50.0 mg/kg/injection, schedule: Q01DX009 (ip), vehicle: saline with Tween-80.
The mark [8] stands for this setting: dose: 25.0 mg/kg/injection, schedule: Q01DX005 (ip), vehicle: saline with Tween-80.
Where [9] appears, read: dose: 50.0 mg/kg/injection, schedule: Q01DX005 (ip), vehicle: saline with Tween-80.
The mark [10] stands for this setting: dose: 100.0 mg/kg/injection, schedule: Q01DX005 (ip), vehicle: saline with Tween-80.
The mark [11] stands for this setting: dose: 200.0 mg/kg/injection, schedule: Q01DX005 (ip), vehicle: saline with Tween-80.
Setting [12] is: dose: 50.0 mg/kg/injection, schedule: Q01DX009 (ip), vehicle: saline.
The mark [13] stands for this setting: dose: 100.0 mg/kg/injection, schedule: Q01DX009 (ip), vehicle: saline.
The mark [14] stands for this setting: dose: 200.0 mg/kg/injection, schedule: Q01DX009 (ip), vehicle: saline.
[15] abbreviates: dose: 50.0 mg/kg/injection, schedule: Q01DX009 (ip), vehicle: Klucel (hydroxypropylcellulose) (HPC).
Setting [16] is: dose: 100.0 mg/kg/injection, schedule: Q01DX009 (ip), vehicle: Klucel (hydroxypropylcellulose) (HPC).

Turning to `S=S1CC2(CSSC2)C1.[Cl][Hg][Cl]`, the T/C is, setting by setting: (dose: 7.5 mg/kg/injection, schedule: Q01DX009 (ip), vehicle: saline) 111 % of control; (dose: 15.0 mg/kg/injection, schedule: Q01DX009 (ip), vehicle: saline) 117 % of control.
`CC1CCc2c(c3ccc(O)cc3oc2=O)C1` (stereo unspecified): the T/C under setting [1] is 101 % of control, the T/C under setting [2] is 96 % of control and the T/C under setting [3] was 92 % of control.
With `CC(CCl)OC(=O)Nc1cccc(C(F)(F)F)c1` (stereo unspecified), the T/C under setting [4] is 106 % of control, the T/C under setting [5] is 102 % of control and the T/C under setting [6] is 107 % of control.
The corresponding values for `COc1ccc(OC)c(NC(=O)Oc2ccc(C#N)cc2)c1` are 119 % of control, 107 % of control and 111 % of control.
Regarding `CSCC[C@]1(C)C(=O)N(C)[C@H](C(C)(C)C)N1C(=O)c1ccccc1`, the T/C runs as follows: under setting [4], 99 % of control; under setting [5], 100 % of control; under setting [6], 93 % of control.
`CCN(CC)CCCC(C)Nc1c2ccc(C)cc2nc2ccc(OC)cc12` (stereo unspecified): the T/C reads like this: (dose: 12.5 mg/kg/injection, schedule: Q01DX009 (ip), vehicle: saline with Tween-80) 103 % of control; under setting [7], 112 % of control.
With `CN1C(c2ccccc2)C2CCCC(C1c1ccccc1)[N+](C)(C)C2` (stereo unspecified), the T/C is 104 % of control (dose: 100.0 mg/kg/injection, schedule: Q04DX003 (ip), vehicle: suspension in saline); 100 % of control (dose: 200.0 mg/kg/injection, schedule: Q04DX003 (ip), vehicle: suspension in saline); 100 % of control (dose: 400.0 mg/kg/injection, schedule: Q04DX003 (ip), vehicle: suspension in saline).
Consider `C[n+]1c(-c2cccc(OCCOCCOc3cccc(-c4c5cc(N)ccc5c5ccc(N)cc5[n+]4C)c3)c2)c2cc(N)ccc2c2ccc(N)cc21`, for which the T/C (dose: 0.19 mg/kg/injection, schedule: Q01DX009 (ip), vehicle: water) is 114 % of control; the T/C (dose: 0.39 mg/kg/injection, schedule: Q01DX009 (ip), vehicle: water) was 114 % of control; the T/C (dose: 1.56 mg/kg/injection, schedule: Q01DX009 (ip), vehicle: water) was 170 % of control; the T/C (dose: 3.13 mg/kg/injection, schedule: Q01DX009 (ip), vehicle: water) is 172 % of control; the T/C (dose: 6.25 mg/kg/injection, schedule: Q01DX009 (ip), vehicle: water) is 102 % of control.
Regarding `CCCCCC1=CC2(F)C(=O)NC(=O)NC12` (stereo unspecified), the T/C was 97 % of control (dose: 12.5 mg/kg/injection, schedule: Q01DX005 (ip), vehicle: Klucel (hydroxypropylcellulose) (HPC)); 98 % of control (dose: 25.0 mg/kg/injection, schedule: Q01DX005 (ip), vehicle: Klucel (hydroxypropylcellulose) (HPC)); 108 % of control under setting [1]; 95 % of control under setting [2].
As to `CCN(CC)CCOc1ccc(C2=C(c3ccc(OC)cc3)Cc3cc(OC)ccc32)cc1`, the T/C was 101 % of control (dose: 6.25 mg/kg/injection, schedule: Q01DX005 (ip), vehicle: saline with Tween-80); 101 % of control (dose: 12.5 mg/kg/injection, schedule: Q01DX005 (ip), vehicle: saline with Tween-80); 105 % of control under setting [8]; 106 % of control under setting [9]; 106 % of control under setting [10]; 102 % of control under setting [11].
For the compound `CN(C)C1=CC(=S)NC2CCCCC12` (stereo unspecified), the T/C by setting is: under setting [1], 99 % of control; under setting [2], 95 % of control; under setting [3], 102 % of control.
In the case of `COc1ccc2c(c1OC)C(=O)O[C@@H]2[C@H]1c2c(cc3c(c2OC)OCO3)CCN1C`, the T/C (dose: 62.5 mg/kg/injection, schedule: Q01DX010 (ip), vehicle: saline) is 100 % of control and the T/C (dose: 125.0 mg/kg/injection, schedule: Q01DX010 (ip), vehicle: saline) is 95 % of control.
For `c1ccc(CSc2nnc3c4ccccc4c4ccccc4c3n2)cc1`, the T/C under setting [7] was 100 % of control; the T/C (dose: 100.0 mg/kg/injection, schedule: Q01DX009 (ip), vehicle: saline with Tween-80) was 102 % of control; the T/C (dose: 200.0 mg/kg/injection, schedule: Q01DX009 (ip), vehicle: saline with Tween-80) was 101 % of control.
Regarding `CCCCCCCCCCCCCCCCOc1ccc(C(=O)CC(=O)OC)cc1`, the T/C by setting is: (dose: 50.0 mg/kg/injection, schedule: Q01DX009 (ip), vehicle: other) 103 % of control; (dose: 100.0 mg/kg/injection, schedule: Q01DX009 (ip), vehicle: other) 100 % of control; (dose: 200.0 mg/kg/injection, schedule: Q01DX009 (ip), vehicle: other) 95 % of control; (dose: 400.0 mg/kg/injection, schedule: Q01DX009 (ip), vehicle: other) 87 % of control.
For `CCOC(=O)N1CCc2cc3c(cc2C1Cc1ccc(OC)c(OC)c1COC(C)=O)OCO3` (stereo unspecified), the T/C is, setting by setting: under setting [9], 100 % of control; under setting [10], 100 % of control; under setting [11], 89 % of control.
Consider `C=CCN1CCN(c2ccncc2S(=O)(=O)N2CCN(C)CC2)CC1`, for which the T/C runs as follows: under setting [12], 105 % of control; under setting [13], 99 % of control; under setting [14], 97 % of control.
Regarding `Nc1nc2c(ncn2C2OC(CO)C(O)C2O)c(=O)n1N` (stereo unspecified), the T/C was 100 % of control and 102 % of control (dose: 12.5 mg/kg/injection, schedule: Q01DX009 (ip), vehicle: Klucel (hydroxypropylcellulose) (HPC)); 103 % of control (dose: 25.0 mg/kg/injection, schedule: Q01DX009 (ip), vehicle: Klucel (hydroxypropylcellulose) (HPC)); 101 % of control and 108 % of control under setting [15]; 104 % of control and 113 % of control under setting [16].
As to `CSc1nc2nc[nH]c(=O)c2[nH]1`, the T/C reads like this: under setting [8], 95 % of control; under setting [9], 99 % of control; under setting [10], 94 % of control.
Take `COc1cc(OC)c(NC(=S)Nc2cc(C)ccc2OC)cc1Cl`: the T/C is, setting by setting: (dose: 6.25 mg/kg/injection, schedule: Q01DX009 (ip), vehicle: DMSO) 94 % of control; (dose: 12.5 mg/kg/injection, schedule: Q01DX009 (ip), vehicle: DMSO) 91 % of control; (dose: 25.0 mg/kg/injection, schedule: Q01DX009 (ip), vehicle: DMSO) 91 % of control; (dose: 50.0 mg/kg/injection, schedule: Q01DX009 (ip), vehicle: DMSO) 91 % of control and 93 % of control; (dose: 100.0 mg/kg/injection, schedule: Q01DX009 (ip), vehicle: DMSO) 87 % of control.
In the case of `CCCCP(=O)(CCCC)CCCC.CCCCP(=O)(CCCC)CCCC.CCCCP(=O)(CCCC)CCCC.CCCCP(=O)(CCCC)CCCC.[Fe+3].[O-][Cl+3]([O-])([O-])O`, the T/C runs as follows: (dose: 50.0 mg/kg/injection, schedule: Q01DX009 (ip), vehicle: saline + Tween-80 + alcohol) 112 % of control; (dose: 100.0 mg/kg/injection, schedule: Q01DX009 (ip), vehicle: saline + Tween-80 + alcohol) 93 % of control; (dose: 200.0 mg/kg/injection, schedule: Q01DX009 (ip), vehicle: saline + Tween-80 + alcohol) 89 % of control.
Take `Cc1cccc(N=Nc2ccc(N=Nc3c(O)ccc4ccccc34)cc2C)c1`: the T/C was 97 % of control under setting [15]; 100 % of control under setting [16]; 100 % of control (dose: 200.0 mg/kg/injection, schedule: Q01DX009 (ip), vehicle: Klucel (hydroxypropylcellulose) (HPC)).
For `C/C(=N\NC(=S)N1CCC(c2ccccc2)CC1)c1ccccn1`, the T/C (dose: 100.0 mg/kg/injection, schedule: Q04DX003 (ip), vehicle: saline) was 100 % of control and the T/C (dose: 200.0 mg/kg/injection, schedule: Q04DX003 (ip), vehicle: saline) is 101 % of control.
For `CC1(C)OCC(N)(CO)CO1`, the T/C by setting is: under setting [12], 107 % of control; under setting [13], 102 % of control; under setting [14], 98 % of control; (dose: 400.0 mg/kg/injection, schedule: Q01DX009 (ip), vehicle: saline) 98 % of control.
